Experiment [1] in a line: Inhibition of alpha-galactosidase assessed as p-nitrophenol release using p-nitrophenyl-alpha-D-galactopyranoside as substrate preincubated for 1 hr before substrate addition measured after 10 mins by spectrophotometry.
Experiment [2] can be described thus: Inhibition of jack bean alpha-mannosidase assessed as p-nitrophenol release using p-nitrophenyl-alpha-D-mannopyranoside as substrate preincubated for 1 hr before substrate addition at pH 4.5 measured after 10 mins by spectrophotometry. The arrangement: species or system Canavalia ensiformis.
Experiment [3] has as its target T1, Pancreatic alpha-amylase (Sus scrofa) (UniProt P00690).
T1 sequence (whole entry): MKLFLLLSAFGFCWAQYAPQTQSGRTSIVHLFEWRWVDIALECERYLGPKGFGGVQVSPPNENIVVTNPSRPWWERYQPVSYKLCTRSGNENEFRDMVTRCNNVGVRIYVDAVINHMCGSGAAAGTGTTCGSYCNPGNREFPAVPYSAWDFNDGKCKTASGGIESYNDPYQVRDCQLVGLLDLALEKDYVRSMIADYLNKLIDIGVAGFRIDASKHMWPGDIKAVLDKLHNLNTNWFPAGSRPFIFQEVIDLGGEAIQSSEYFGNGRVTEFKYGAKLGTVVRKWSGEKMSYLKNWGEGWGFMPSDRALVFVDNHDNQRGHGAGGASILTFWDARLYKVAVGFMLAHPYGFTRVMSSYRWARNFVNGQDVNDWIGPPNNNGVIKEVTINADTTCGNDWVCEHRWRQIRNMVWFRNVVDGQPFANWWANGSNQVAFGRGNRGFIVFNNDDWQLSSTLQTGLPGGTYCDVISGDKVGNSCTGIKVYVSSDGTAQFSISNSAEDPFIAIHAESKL
As to the kind of experiment: Inhibition of pig pancreatic alpha-amylase assessed as maltose release from starch at 5 mg/cm'3 after 10 mins by DNSA assay.

Experiment [4] can be described thus: Inhibition of alpha-glucosidase assessed as p-nitrophenol release using p-nitrophenyl-alpha-D-glucopyranoside as substrate preincubated for 1 hr before substrate addition at pH 6.8 measured after 10 mins by spectrophotometry.
A short description of experiment [5]: Inhibition of alpha-mannosidase.
Experiment [6] in a line: Inhibition of jack bean alpha-mannosidase assessed as p-nitrophenol release using p-nitrophenyl-alpha-D-mannopyranoside as substrate after 15 to 60 mins by spectrophotometry. Details: species or system Canavalia ensiformis.

Active and inactive are the calls of the source. The calls are words filed in the database; no cut-off is given here.

This passage reports inhibition and IC50 results from ChEMBL document CHEMBL1914357, “Synthesis of anomeric 1,5-anhydrosugars as conformationally locked selective α-mannosidase inhibitors” (Bioorg Med Chem, 2011).

As usually defined, the IC50 is the concentration at which inhibition is half-maximal.

Regarding `OC[C@H]1O[C@@H]2OCC[C@@]1(O)[C@H]2O`, the inhibition result in experiment [1], in experiment [3] and in experiment [4] was “inactive” in each case. Moreover, in experiment [2], the IC50 worked out at 133 µM.
Take `NC[C@H]1O[C@@H]2OCC[C@@]1(O)[C@H]2O`: the inhibition result in experiment [1], in experiment [3] and in experiment [4] was “inactive” throughout. Besides, the IC50 in experiment [2] turned out to be 98.3 µM.
In turn, `OC[C@@H]1CC2NCC1(O)C(O)C2O` (stereo partly specified) came in with an IC50 in experiment [5] of 9600 µM.
On the same count and under the same terms, with `OC[C@@H]1CC2C(O)C(O)C1(O)CN2Cc1ccccc1` (stereo partly specified) the figure was 20000 µM.
As for `O[C@H]1[C@H]2[C@H](O)CCCN2C[C@H]1O` [TRIDOLGOSIR], the IC50 in experiment [6] worked out at 0.1 µM.
